Experimental data: ChEMBL document CHEMBL5506057, “Discovery and Optimization of Potent, Efficacious and Selective Inhibitors Targeting EGFR Exon20 Insertion Mutations” (J Med Chem, 2024)

Key:
[1] = Lipophilicity, logD of compound in octanol and aqueous buffer at pH 7.4 incubated for 2 hrs by shake-flask method based LC-MS/MS analysis; format: physicochemical
[2] = Metabolic stability in human liver microsomes assessed as intrinsic clearance at 1 uM incubated for 30 mins in presence of NADPH by LC-MS/MS analysis; format: ADME, Microsome; details: read-out: CLH
[3] = Metabolic stability in rat hepatocytes assessed as intrinsic clearance measured per 10^6 cells at 1 uM incubated for 120 mins by LC-MS/MS analysis; format: ADME, cell-based, Hepatocyte; details: read-out: CLH
[4] = Metabolic stability in CD-1 mouse hepatocytes assessed as intrinsic clearance measured per 10^6 cells at 1 uM incubated for 120 mins by LC-MS/MS analysis; format: ADME, cell-based, Hepatocyte; details: read-out: CLH
[5] = GSH reactivity of compound in phosphate buffer assessed as half-life at pH 7.4 at 1 uM by LC-MS/MS analysis; format: physicochemical; details: phosphate buffer with GSH
[6] = Intrinsic permeability in human Caco-2 cells at 10 uM; format: ADME, cell-based; details: read-out: permeability
[7] = Duration (time) of SCID mouse free plasma concentration cover over EGFR insSVD cell IC50 at 50 mg/kg, po; format: ADME, organism-based; details: in vivo
[8] = target: T1, Epidermal growth factor receptor (Homo sapiens, UniProt P00533); assay: Inhibition of recombinant wildtype human N-terminal GST-tagged EGFR cytoplasmic domain (669 to 1210 residues) expressed in Sf21 insect cells using Poly(Glu,Tyr) peptide as substrate preincubated for 15 mins followed by substrate addition and measured after 50 mins in presence of ATP by ADP-Glo reagent based assay
[9] = target: Epidermal growth factor receptor (Homo sapiens, UniProt P00533, D770-N771INSNPG); assay: Inhibition of 6His-tagged TEV-GS fused EGFR D770_N771insNPG mutant (G696 to G1210 reisudes) (unknown origin) expressed in Sf21 cells using Poly(Glu,Tyr) peptide as substrate preincubated for 15 mins followed by substrate addition and measured after 30 mins in presence of ATP by ADP-Glo reagent based assay
[10] = Selectivity ratio of IC50 for inhibition of recombinant wildtype human N-terminal GST-tagged EGFR cytoplasmic domain (669 to 1210 residues) expressed in Sf21 insect cells to IC50 for inhibition of 6His-tagged TEV-GS fused EGFR D770_N771insNPG mutant (G696 to G1210 reisudes) (unknown origin) expressed in Sf21 cells
[11] = target: T2, Epidermal growth factor receptor (Homo sapiens, UniProt P00533, D770-N771INSSVD); assay: Inhibition of EGFR D770_N771insSVD mutant (unknown origin) phosphorylation transfected in human NCI-H2073 cells incubated for 2 hrs by HTRF assay; format: cell-based
[12] = Selectivity ratio of IC50 for inhibition of wildtype EGFR (unknown origin) transfected in human NCI-H2073 cells preincubated for 2 hrs followed by EGF stimulation for 10 mins by HTRF assay to IC50 for inhibition of EGFR D770_N771insSVD mutant (unknown origin) transfected in human NCI-H2073 cells incubated for 2 hrs by HTRF assay; format: cell-based
[13] = target: T1, Epidermal growth factor receptor; assay: Inhibition of wildtype EGFR (unknown origin) phosphorylation transfected in human NCI-H2073 cells preincubated for 2 hrs followed by EGF stimulation for 10 mins by HTRF assay; format: cell-based
[14] = target: T1, Epidermal growth factor receptor; assay: Inhibition of wildtype EGFR (unknown origin) phosphorylation transfected in human NCI-H2073 cells preincubated for 2 hrs followed by EGF stimulation for 10 mins by ELISA; format: cell-based
[15] = target: T2, Epidermal growth factor receptor; assay: Inhibition of EGFR D770_N771insSVD mutant (unknown origin) phosphorylation transfected in human NCI-H2073 cells incubated for 2 hrs by ELISA; format: cell-based
[16] = Selectivity ratio of IC50 for inhibition of wildtype EGFR (unknown origin) transfected in human NCI-H2073 cells preincubated for 2 hrs followed by EGF stimulation for 10 mins by ELISA to IC50 for inhibition of EGFR D770_N771insSVD mutant (unknown origin) transfected in human NCI-H2073 cells incubated for 2 hrs by ELISA; format: cell-based
[17] = Selectivity ratio of Ki/Kinact for inhibition of EGFR D770_N771insNPG mutant (unknown origin) using AQT0099 as substrate to Ki/Kinact for inhibition of wildtype EGFR (unknown origin) using AQT0099 as substrate

T1 sequence (P00533 whole entry, the tested form may be a part): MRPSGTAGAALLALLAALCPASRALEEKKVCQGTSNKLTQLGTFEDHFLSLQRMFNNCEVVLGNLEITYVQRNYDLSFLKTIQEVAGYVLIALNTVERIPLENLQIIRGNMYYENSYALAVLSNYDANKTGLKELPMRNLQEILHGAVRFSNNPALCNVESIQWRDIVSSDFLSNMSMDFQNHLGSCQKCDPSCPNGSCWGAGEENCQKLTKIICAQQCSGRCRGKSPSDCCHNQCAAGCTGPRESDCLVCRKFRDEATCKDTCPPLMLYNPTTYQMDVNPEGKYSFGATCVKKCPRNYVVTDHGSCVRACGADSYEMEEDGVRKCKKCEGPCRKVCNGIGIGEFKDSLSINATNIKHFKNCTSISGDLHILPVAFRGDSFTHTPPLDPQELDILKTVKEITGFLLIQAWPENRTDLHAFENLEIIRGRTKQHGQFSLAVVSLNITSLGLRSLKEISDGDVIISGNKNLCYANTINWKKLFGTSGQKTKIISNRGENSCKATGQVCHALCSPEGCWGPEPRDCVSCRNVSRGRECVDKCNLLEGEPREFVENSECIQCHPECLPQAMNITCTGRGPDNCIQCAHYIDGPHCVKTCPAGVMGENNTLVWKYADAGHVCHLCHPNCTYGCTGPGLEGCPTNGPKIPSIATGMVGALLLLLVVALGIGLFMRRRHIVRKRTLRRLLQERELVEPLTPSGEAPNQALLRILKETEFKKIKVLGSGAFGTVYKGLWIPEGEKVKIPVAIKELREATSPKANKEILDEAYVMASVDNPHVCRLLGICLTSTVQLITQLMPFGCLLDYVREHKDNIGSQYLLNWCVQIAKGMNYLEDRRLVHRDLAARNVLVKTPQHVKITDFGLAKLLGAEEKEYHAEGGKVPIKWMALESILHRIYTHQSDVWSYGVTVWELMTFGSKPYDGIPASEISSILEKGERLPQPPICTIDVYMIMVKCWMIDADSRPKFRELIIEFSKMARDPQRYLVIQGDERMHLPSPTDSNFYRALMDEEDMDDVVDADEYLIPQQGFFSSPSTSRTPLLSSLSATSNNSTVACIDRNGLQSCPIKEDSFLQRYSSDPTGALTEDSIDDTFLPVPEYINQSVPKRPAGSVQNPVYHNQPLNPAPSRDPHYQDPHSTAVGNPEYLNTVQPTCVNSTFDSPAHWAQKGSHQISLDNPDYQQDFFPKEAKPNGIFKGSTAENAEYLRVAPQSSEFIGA
T2 sequence (P00533 whole entry, looked up, stated change not applied): as the sequence (P00533 whole entry, the tested form may be a part) above
Chain of Epidermal growth factor receptor (Homo sapiens, UniProt P00533, D770-N771INSNPG) (P00533 whole entry, looked up, stated change not applied, the tested form may be a part): as the sequence (P00533 whole entry, the tested form may be a part) above

## C=CC(=O)N1CC(n2cc(-c3ccncc3)c(-c3cccc(NC(=O)c4cn(C5CC5)cn4)c3)n2)C1
[1]
  logD at 2 h: 2.2
[2]
  microsomal CLint at 1 µM: 19 µL/min/mg
[3]
  hepatocyte CLint at 1 µM: 58 µL/min/1e6 cells
[4]
  hepatocyte CLint at 1 µM: 150 µL/min/1e6 cells

## C=CC(=O)Nc1ccc(OC)c(Nc2nccc(-c3c[nH]nc3-c3cccc(OC)c3)n2)c1
[1]
  logD at 2 h: 4.1
[5]
  half-life at 1 µM: 5.35 h
[2]
  microsomal CLint at 1 µM: 46 µL/min/mg
[6]
  Papp at 10 µM: 64 ×10⁻⁶ cm/s

## C=CC(=O)N1C[C@@H](n2cc(-c3ccncc3)c(-c3ccc(F)c(COc4ccc5c(c4)CN(C)C5=O)c3)n2)C[C@H]1C
[1]
  logD at 2 h: 3.6
[2]
  microsomal CLint at 1 µM: > 300 µL/min/mg
[3]
  hepatocyte CLint at 1 µM: 173 µL/min/1e6 cells

## C=CC(=O)N1CC[C@H](n2cc(-c3ccncn3)c(-c3cccc(/C=C/c4ncc(C5CC5)o4)c3)n2)C1
[1]
  logD at 2 h: 3.7
[2]
  microsomal CLint at 1 µM: 202 µL/min/mg
[3]
  hepatocyte CLint at 1 µM: 67 µL/min/1e6 cells

## C=CC(=O)N1CC(Oc2cc3c(-c4c[nH]nc4-c4cccc(OC)c4)ncnc3cc2OC)C1
[1]
  logD at 2 h: 2
[2]
  microsomal CLint at 1 µM: 33 µL/min/mg

## C=CC(=O)N1CC[C@H](n2cc(-c3ccncc3)c(-c3cccc(NC(=O)c4ncc(C5CC5)o4)c3)n2)C1
[1]
  logD at 2 h: 3.1
[2]
  microsomal CLint at 1 µM: 166 µL/min/mg
[3]
  hepatocyte CLint at 1 µM: 187 µL/min/1e6 cells
[6]
  Papp at 10 µM: 30 ×10⁻⁶ cm/s

## C=CC(=O)N1C[C@@H](n2cc(-c3ccncc3)c(-c3cccc(COc4ccc5c(c4)CN(C)C5=O)c3)n2)C[C@H]1C
[1]
  logD at 2 h: 3.4
[2]
  microsomal CLint at 1 µM: > 300 µL/min/mg
[3]
  hepatocyte CLint at 1 µM: 58 µL/min/1e6 cells
[7]
  Time: 3 h
[4]
  hepatocyte CLint at 1 µM: 30 µL/min/1e6 cells

## CN1Cc2cc(COc3cccc(-c4n[nH]cc4-c4ccncc4)c3)ccc2C1=O
[8]
  IC50: > 7400 nM
[1]
  logD at 2 h: 3.1
[9]
  IC50: 150 nM
[2]
  microsomal CLint at 1 µM: 77 µL/min/mg
[10]
  Ratio IC50: > 50

## Fc1ccccc1COc1cccc(-c2n[nH]cc2-c2ccncn2)c1
[1]
  logD at 2 h: 3.5
[2]
  microsomal CLint at 1 µM: 117 µL/min/mg

## C=CC(=O)N1C[C@@H](n2cc(-c3ccncc3)c(-c3cc(COc4ccc5c(c4)CN(C)C5=O)ccc3F)n2)C[C@H]1C
[1]
  logD at 2 h: 3.3
[2]
  microsomal CLint at 1 µM: > 300 µL/min/mg
[3]
  hepatocyte CLint at 1 µM: 55 µL/min/1e6 cells

## C=CC(=O)N1CC(n2cc(-c3ccncc3)c(-c3cccc(/C=C/c4ncc(C5CC5)o4)c3)n2)C1
[1]
  logD at 2 h: 4.4
[2]
  microsomal CLint at 1 µM: 51 µL/min/mg
[3]
  hepatocyte CLint at 1 µM: 48 µL/min/1e6 cells
[4]
  hepatocyte CLint at 1 µM: 64 µL/min/1e6 cells

## C=CC(=O)N1CC[C@H](n2cc(-c3ccncc3)c(-c3cc(F)cc(OCc4ccc5c(c4)CN(C)C5=O)c3)n2)C1
[11]
  IC50: 540 nM
[1]
  logD at 2 h: 3.3
[12]
  Ratio IC50: > 52
[2]
  microsomal CLint at 1 µM: > 300 µL/min/mg
[13]
  IC50: > 28000 nM

## C=CC(=O)N1CC[C@@H](n2cc(-c3ncnc4cc(OC)c(OC)cc34)c(-c3cccc(OC)c3)n2)C1
[1]
  logD at 2 h: 2.4
[2]
  microsomal CLint at 1 µM: 135 µL/min/mg

## C=CC(=O)N1CC[C@H](n2cc(-c3ccncc3)c(-c3cccc(OCc4ccc5c(c4)CN(C)C5=O)c3)n2)C1
[1]
  logD at 2 h: 2.6
[2]
  microsomal CLint at 1 µM: > 264 µL/min/mg
[4]
  hepatocyte CLint at 1 µM: 64 µL/min/1e6 cells

## C=CC(=O)N1CC[C@H](n2cc(-c3ccncc3)c(-c3cc(OCc4ccc5c(c4)CN(C)C5=O)ccc3F)n2)C1
[1]
  logD at 2 h: 2.7
[2]
  microsomal CLint at 1 µM: > 300 µL/min/mg

## C=CC(=O)N1CC[C@H](n2cc(-c3ccncc3)c(-c3cccc(NC(=O)c4ccc5c(c4)CN(C)C5=O)c3)n2)C1
[1]
  logD at 2 h: 2.2
[2]
  microsomal CLint at 1 µM: 58 µL/min/mg
[3]
  hepatocyte CLint at 1 µM: 21 µL/min/1e6 cells
[6]
  Papp at 10 µM: < 0.36 ×10⁻⁶ cm/s

## C=CC(=O)N1CC[C@H](n2cc(-c3ncnc4cc(OC)c(OC)cc34)c(-c3cccc(OC)c3)n2)C1
[1]
  logD at 2 h: 2.4
[2]
  microsomal CLint at 1 µM: 157 µL/min/mg

## C=CC(=O)N1CC[C@H](n2cc(-c3ccncc3)c(-c3cccc(NC(=O)c4cn(C5CC5)cn4)c3)n2)C1
[1]
  logD at 2 h: 2.5
[2]
  microsomal CLint at 1 µM: 64 µL/min/mg
[3]
  hepatocyte CLint at 1 µM: 38 µL/min/1e6 cells
[7]
  Time: 1 h
[4]
  hepatocyte CLint at 1 µM: 42 µL/min/1e6 cells

## C=CC(=O)NCCn1cc(-c2ncnc3cc(OC)c(OC)cc23)c(-c2cccc(OC)c2)n1
[1]
  logD at 2 h: 2.4
[5]
  half-life at 1 µM: 49.3 h
[2]
  microsomal CLint at 1 µM: 116 µL/min/mg

## Fc1ccccc1COc1cccc(-c2n[nH]cc2-c2ccncc2)c1
[1]
  logD at 2 h: > 4.9
[2]
  microsomal CLint at 1 µM: 226 µL/min/mg

## C=CC(=O)N1CC[C@H](n2cc(-c3ccncc3)c(-c3cccc(COc4ccc5c(c4)CN(C)C5=O)c3)n2)C1
[1]
  logD at 2 h: 3
[2]
  microsomal CLint at 1 µM: > 300 µL/min/mg
[3]
  hepatocyte CLint at 1 µM: 128 µL/min/1e6 cells

## C=CC(=O)N1CC[C@H](n2cc(-c3ccncc3)c(-c3cccc(/C=C/c4cc5n(n4)CCOC5)c3)n2)C1
[1]
  logD at 2 h: 3.5
[2]
  microsomal CLint at 1 µM: 167 µL/min/mg
[3]
  hepatocyte CLint at 1 µM: 62 µL/min/1e6 cells

## C=CC(=O)Nc1cc(Nc2ncc(C(=O)OC(C)C)c(-c3cn(C)c4ccccc34)n2)c(OC)cc1N(C)CCN(C)C [MOBOCERTINIB]
[8]
  IC50: 1 nM
[14]
  IC50: 30 nM
[15]
  IC50: 22 nM
[11]
  IC50: 34 nM
[16]
  Ratio IC50: 1.4
[12]
  Ratio IC50: 1.1
[9]
  IC50: < 3 nM
[10]
  Ratio IC50: > 0.4
[17]
  Selectivity ratio: 0.63
[13]
  IC50: 37 nM

## COc1cc2ncnc(-c3c[nH]nc3-c3cccc(OCc4ccc5c(c4)CN(C)C5=O)c3)c2cc1OC
[2]
  microsomal CLint at 1 µM: > 300 µL/min/mg

## C=CC(=O)N1C[C@@H](n2cc(-c3ccncc3)c(-c3cccc(OCc4ccc5c(c4)CN(C)C5=O)c3)n2)C[C@@H]1C
[1]
  logD at 2 h: 3
[2]
  microsomal CLint at 1 µM: > 300 µL/min/mg

## C=CS(=O)(=O)NCCn1cc(-c2ncnc3cc(OC)c(OC)cc23)c(-c2cccc(OC)c2)n1
[1]
  logD at 2 h: 2.2
[5]
  half-life at 1 µM: 1.15 h
[2]
  microsomal CLint at 1 µM: 192 µL/min/mg

## C=CC(=O)N1CC[C@H](n2cc(-c3ccncc3)c(-c3cccc(NC(=O)c4cccc(OC)c4F)c3)n2)C1
[1]
  logD at 2 h: 2.9
[2]
  microsomal CLint at 1 µM: 175 µL/min/mg
[3]
  hepatocyte CLint at 1 µM: 51 µL/min/1e6 cells
[6]
  Papp at 10 µM: 42 ×10⁻⁶ cm/s

## C=CC(=O)N1C[C@@H](n2cc(-c3ccncc3)c(-c3cccc(OCc4ccc5c(c4)CN(C)C5=O)c3)n2)C[C@H]1C
[1]
  logD at 2 h: 3.2
[2]
  microsomal CLint at 1 µM: > 300 µL/min/mg

## C#CC(=O)NCCn1cc(-c2ncnc3cc(OC)c(OC)cc23)c(-c2cccc(OC)c2)n1
[1]
  logD at 2 h: 2.1
[5]
  half-life at 1 µM: 0.917 h
[2]
  microsomal CLint at 1 µM: 105 µL/min/mg

## C=CC(=O)Nc1ccc(OC)c(Nc2cc(-c3c[nH]nc3-c3cccc(OCc4ccc5c(c4)CN(C)C5=O)c3)ccn2)c1
[1]
  logD at 2 h: 3.9
[2]
  microsomal CLint at 1 µM: > 300 µL/min/mg
[6]
  Papp at 10 µM: 7.5 ×10⁻⁶ cm/s
